# Experimental data published in paper PMC11802874, “The hypolipidemic effect of MI-883, the combined CAR agonist/ PXR antagonist, in diet-induced hypercholesterolemia model” (Nature Communications, 2025).
# “And” between values parts separate entries of the source, which are not always exact repeats. Equal entries are not always repeated.
# How the values were obtained:
# [1] = tested on: 3D primary human hepatocyte spheroids; assay: RT-qPCR mRNA expression in 3D primary human hepatocyte spheroids; type: cell-based; settings: for CYP2B6 fold change, 3D PHH spheroids, mean of donors / CYP3A4 fold change, 3D PHH spheroids, mean of donors: MI-883 (5 uM)
# Method: Briefly, PHHs were cultivated for 6 days to generate compact spheroids by spontaneous self-aggregation and then half of PHH medium was exchanged for FBS-free PHH medium. 3D PHHs were treated with MI-883 (5 μM) commenced from day 8 within a time range of 8–120 h (time points were 8, 12, 24, 48, 72, and 120 h). Conditioned FBS-free PHH medium was changed every 2–3 days of the treatment. […] Data are presented as the mean ± SD of fold change expression gained from 3D spheroids of three different donors. ATP assay has been performed as described.
# [2] = molecular target: T1, mutant PXR LBD (S208W/S247W/C284W) (Homo sapiens, UniProt O75469, C284W/S208W/S247W); assay: CYP3A4 reporter assay with LBP-obstructed mutant PXR in HepG2 cells; type: cell-based; settings: HepG2, 24 h
# T1 construct: expressed in transfected cells; host or cells: HepG2
# T1 sequence (O75469 whole entry S208W/S247W/C284W, the tested form may be a part): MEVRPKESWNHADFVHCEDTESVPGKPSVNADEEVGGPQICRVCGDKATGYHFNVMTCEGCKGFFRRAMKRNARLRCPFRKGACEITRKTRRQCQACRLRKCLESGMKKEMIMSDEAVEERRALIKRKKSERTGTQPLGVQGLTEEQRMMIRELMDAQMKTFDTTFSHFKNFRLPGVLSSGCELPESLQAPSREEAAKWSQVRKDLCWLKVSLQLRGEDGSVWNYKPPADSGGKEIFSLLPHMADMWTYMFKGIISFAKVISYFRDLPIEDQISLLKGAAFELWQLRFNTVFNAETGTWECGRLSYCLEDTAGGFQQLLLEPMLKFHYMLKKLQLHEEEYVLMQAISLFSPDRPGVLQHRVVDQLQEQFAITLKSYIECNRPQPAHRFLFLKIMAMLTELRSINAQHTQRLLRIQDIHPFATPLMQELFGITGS
# Excerpt: The luciferase reporter plasmid was used together with the human wild-type PXR expression vector or with expression vectors with mutated PXR LBD (Fig. 1j).
# [3] = tested on: humanized PXR-CAR-CYP3A4/3A7 mice fed HCD; assay: High-cholesterol diet (HCD) study: weights, plasma biochemistry; type: in vivo, mouse; settings: for ALP / ALT / AST / Albumin / Bilirubin / Fe / UA / Urea / LDH / BW (Fig. 4g) / Chol (Fig. 4h) / Glu (Fig. 4h) / HDL (Fig. 4h) / LDL (Fig. 4h) / LW (Fig. 4g) / LW/BW (Fig. 4g) / TG (Fig. 4h): individual animals
# Method: For experiments with a high-cholesterol diet (HCD), mice (18–26 weeks) were pretreated ad libitum for 2 weeks with diet containing 15% fat and 12.5 g/kg of cholesterol (E15103, ssniff, Soest, Germany) (Fig. 4f). After this period, animals were randomly assigned to two groups (control vehicle-treated and MI-883-treated animals, with 9 males and 7 females per group). Animals were dosed orally with MI-883 (5 mg/kg every other day—Monday, Wednesday, Friday, and the following Monday and Wednesday, for a total of 5 doses) or vehicle alone (5% DMSO/5% PEG300/90% corn oil) via oral gavage three times per week. The animals remained on the HCD during the treatment period. Mice were sacrificed after 5 treatments.
# Mice were weighted and tissues (livers, blood, duodenum, jejunum, ileum, white fat) were removed, weighted and snap frozen in liquid nitrogen and stored at –80 °C until analysis. Blood was collected from the retro-orbital sinus of mice under isoflurane anesthesia into heparin-coated tubes (Kabe Laboratortechnik GmbH, Nümbrecht-Elsenroth, Germany) after 3 h fasting and analyzed on AU480 biochemistry analyzer (Beckman Coulter, Brea, USA). Sample preparation for bile acid and cholesterol analyses from tissues or feces is described below. One of the liver lobes was fixed in formalin, embedded in paraffin blocks, sectioned, and subjected to H&E staining. Blood was analyzed as described in Supplementary, Chapter 10.
# Blood was collected from the retro-orbital sinus of mice under isoflurane anesthesia into heparin-coated tubes (Kabe Laboratortechnik GmbH, Nümbrecht-Elsenroth, Germany) after 3 hours of fasting. Blood was left for 10 minutes at room temperature, and then kept on ice until centrifugation (5,000 g at 4°C for 10 minutes). The collected plasma was stored at -80 °C until measurement. Lipoprotein levels and other plasmatic parameters were measured on an AU480 biochemistry analyzer (Beckman Coulter, Brea, USA).
# [4] = first vehicle/MI-883 column pair
# [5] = second vehicle/MI-883 column pair
smiles,measurement,setting,value
"NC(=O)c1cc(Cn2cc(-c3c(-c4ccc(Cl)cc4)nc4cc(F)ccn34)nn2)ccc1Cl [MI-883, 2-chloro-5-((4-(2-(4-chlorophenyl)-7-fluoroimidazo[1,2-a]pyridin-3-yl)-1H-1,2,3-triazol-1-yl)methyl)benzamide]","proliferative biomarkers MDM2, PCNA, FOXM1 in 3D human hepatocyte spheroid",[1]; 72 h,no significant effects
same,"CYP2B6 fold change, 3D PHH spheroids, mean of donors",[1]; 8 h,1.9
same,"CYP3A4 fold change, 3D PHH spheroids, mean of donors",[1]; 8 h,0.9
same,"CYP2B6 fold change, 3D PHH spheroids, mean of donors",[1]; 12 h,3.0
same,"CYP3A4 fold change, 3D PHH spheroids, mean of donors",[1]; 12 h,0.7
same,"CYP2B6 fold change, 3D PHH spheroids, mean of donors",[1]; 24 h,5.1
same,"CYP3A4 fold change, 3D PHH spheroids, mean of donors",[1]; 24 h,0.8
same,"CYP2B6 fold change, 3D PHH spheroids, mean of donors",[1]; 48 h,8.0
same,"CYP3A4 fold change, 3D PHH spheroids, mean of donors",[1]; 48 h,1.0
same,"CYP2B6 fold change, 3D PHH spheroids, mean of donors",[1]; 72 h,8.2
same,"CYP3A4 fold change, 3D PHH spheroids, mean of donors",[1]; 72 h,0.8
same,"CYP2B6 fold change, 3D PHH spheroids, mean of donors",[1]; 120 h,6.7
same,"CYP3A4 fold change, 3D PHH spheroids, mean of donors",[1]; 120 h,0.7
same,inhibition of constitutive activity of LBP-obstructed mutant PXR,[2],failure of MI-883 to inhibit
same,ALP,[3]; HCD female,64 and 60 and 66
same,ALT,[3]; HCD female,52 and 44 and 50 and 65 and 53 and 31 and 37
same,AST,[3]; HCD female,97 and 85 and 59 and 60 and 100 and 48
same,Albumin,[3]; HCD female,29.13 and 29.02 and 28.37 and 27.41 and 25.72 and 27.39 and 28.99
same,Bilirubin,[3]; HCD female,1.92 and 2.23 and 1.15 and 0.79 and 1.09 and 1.2
same,Fe,[3]; HCD female,25.95 and 24.87 and 19.99 and 29.01 and 26.38 and 27.47 and 25.24
same,UA,[3]; HCD female,74.13 and 68.35 and 69.17 and 60.17 and 117.85 and 58.32 and 32.43
same,Urea,[3]; HCD female,5.81 and 6.85 and 7.72 and 6.07 and 8.19 and 6.12 and 7.88
same,ALP,[3]; HCD male,60 and 53 and 64 and 50 and 42 and 46 and 69 and 45 and 43
same,ALT,[3]; HCD male,335 and 154 and 210 and 103 and 48 and 36 and 40 and 194 and 61
same,AST,[3]; HCD male,202 and 190 and 151 and 98 and 62 and 43 and 71 and 125 and 88
same,Albumin,[3]; HCD male,25.95 and 26.89 and 26.71 and 27.24 and 27.46 and 26.93 and 28.1 and 27.95 and 27.85
same,Bilirubin,[3]; HCD male,1.82 and 2.96 and 1.74 and 3.02 and 2.04 and 3.59 and 1.89 and 1.94
same,Fe,[3]; HCD male,21.53 and 13.76 and 24.97 and 21.49 and 28.7 and 25.79 and 20.83 and 28.43 and 27.87
same,UA,[3]; HCD male,56.8 and 93.42 and 54.01 and 55.84 and 44.35 and 31.12 and 35.14 and 37.35 and 25.57
same,Urea,[3]; HCD male,7.34 and 6.71 and 7.14 and 5.73 and 5.13 and 5.97 and 6.54 and 7
same,liver weight (LW) and LW/BW,"[3]; HCD, p.o. 5 mg/kg, five doses every other day",not after five doses
same,LDH,"[3]; HCD, (sex not given)",1.47 and 1.15 and 1.63 and 0.85 and 1.36 and 1.38 and 0.99 and 1.41 and 1.28
same,LDH,"[3]; HCD, vehicle/MI-883 (sex not given)",1.12 and 1.15 and 1.19 and 1.1 and 1.09
same,BW (Fig. 4g),[3]; [4],26.3 and 24.9 and 24.8 and 24.3 and 24 and 23.2
same,Chol (Fig. 4h),[3]; [4],3.83 and 3.39 and 3.78 and 3.72 and 3.46 and 3.54 and 3.66
same,Glu (Fig. 4h),[3]; [4],13.29 and 13.05 and 14.81 and 13.6 and 14.89 and 13.61 and 13.46
same,HDL (Fig. 4h),[3]; [4],2.476 and 2.431 and 2.259 and 2.337 and 2.161 and 2.202 and 2.297
same,LDL (Fig. 4h),[3]; [4],1.12 and 1.15 and 1.19 and 1.1 and 1.09
same,LW (Fig. 4g),[3]; [4],1.78 and 1.62 and 1.65 and 1.52 and 1.64 and 1.48
same,LW/BW (Fig. 4g),[3]; [4],6.77 and 6.51 and 6.65 and 6.255 and 6.833 and 6.379
same,TG (Fig. 4h),[3]; [4],1.189 and 1.059 and 1.137 and 1.521 and 2.113 and 1.22 and 1.433
same,triglyceride levels in females,"[3]; second study (HCD), at the level of statistical significance",some increase
same,BW (Fig. 4g),[3]; [5],30 and 29.4 and 30.6 and 30.9 and 33.4 and 29.7 and 26.5 and 28.4 and 26.8
same,Chol (Fig. 4h),[3]; [5],5.16 and 3.99 and 5.8 and 3.44 and 4.89 and 4.88 and 4.18 and 4.72
same,Glu (Fig. 4h),[3]; [5],13.25 and 13.05 and 16.4 and 12.86 and 18.52 and 15.35 and 11.72 and 18.14 and 17.74
same,HDL (Fig. 4h),[3]; [5],3.01 and 2.484 and 3.335 and 2.267 and 3.073 and 3.039 and 2.781 and 3.388 and 2.988
same,LDL (Fig. 4h),[3]; [5],1.47 and 1.15 and 1.63 and 0.85 and 1.36 and 1.38 and 0.99 and 1.41 and 1.28
same,LW (Fig. 4g),[3]; [5],1.63 and 1.97 and 2.03 and 1.53 and 2.51 and 2.11 and 1.85 and 1.32 and 1.94
same,LW/BW (Fig. 4g),[3]; [5],5.43 and 6.7 and 6.63 and 4.95 and 7.51 and 7.1 and 6.98 and 4.65 and 7.24
same,TG (Fig. 4h),[3]; [5],0.993 and 0.808 and 0.849 and 0.608 and 0.516 and 0.697 and 0.709 and 0.93 and 0.706
